We go through 35 compounds from ChEMBL document CHEMBL5029145, “Discovery of AZD8154, a Dual PI3Kγδ Inhibitor for the Treatment of Asthma” (J Med Chem, 2021).

Test [1] concerns the target T1, Phosphatidylinositol 4,5-bisphosphate 3-kinase catalytic subunit delta isoform (Homo sapiens, UniProt O00329).
T1 sequence (O00329 whole entry): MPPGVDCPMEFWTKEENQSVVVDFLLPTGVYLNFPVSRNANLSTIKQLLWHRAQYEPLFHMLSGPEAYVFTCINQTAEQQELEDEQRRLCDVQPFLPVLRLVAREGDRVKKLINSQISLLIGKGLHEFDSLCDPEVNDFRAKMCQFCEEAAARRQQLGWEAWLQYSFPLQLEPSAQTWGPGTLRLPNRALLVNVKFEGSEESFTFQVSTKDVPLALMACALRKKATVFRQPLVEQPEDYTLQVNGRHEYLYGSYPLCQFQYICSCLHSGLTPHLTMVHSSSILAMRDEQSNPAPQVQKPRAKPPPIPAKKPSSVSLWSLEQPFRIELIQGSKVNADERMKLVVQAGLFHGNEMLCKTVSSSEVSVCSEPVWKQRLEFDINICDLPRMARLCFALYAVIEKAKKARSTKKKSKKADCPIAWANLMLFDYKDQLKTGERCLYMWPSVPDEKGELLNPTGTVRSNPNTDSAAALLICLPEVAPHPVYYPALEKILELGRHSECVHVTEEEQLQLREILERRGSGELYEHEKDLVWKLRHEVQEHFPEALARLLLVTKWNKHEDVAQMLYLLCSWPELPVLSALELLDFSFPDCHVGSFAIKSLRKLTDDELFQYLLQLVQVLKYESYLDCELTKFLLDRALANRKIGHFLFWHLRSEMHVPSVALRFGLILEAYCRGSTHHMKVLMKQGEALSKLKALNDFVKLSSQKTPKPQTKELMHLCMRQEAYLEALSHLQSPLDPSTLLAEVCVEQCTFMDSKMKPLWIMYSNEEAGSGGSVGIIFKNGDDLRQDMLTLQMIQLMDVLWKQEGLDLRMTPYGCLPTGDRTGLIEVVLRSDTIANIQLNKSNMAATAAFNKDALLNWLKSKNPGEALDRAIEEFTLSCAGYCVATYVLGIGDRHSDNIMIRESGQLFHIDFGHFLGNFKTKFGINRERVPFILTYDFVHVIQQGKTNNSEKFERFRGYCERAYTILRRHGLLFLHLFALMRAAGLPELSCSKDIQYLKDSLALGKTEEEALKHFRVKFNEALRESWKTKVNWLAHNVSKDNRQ
Nature of the test: Inhibition of recombinant human PI3Kdelta assessed as reduction in ADP production using Dic8-PIP2 as substrate pre-treated for 15 mins followed by substrate addition measured after 60 mins by ADP-glo assay.

Test [2] concerns the target Phosphatidylinositol 4,5-bisphosphate 3-kinase catalytic subunit alpha isoform (Homo sapiens, UniProt P42336). Nature of the test: Inhibition of recombinant human PI3Kalpha assessed as reduction in ADP production using Dic8-PIP2 as substrate pre-treated for 15 mins followed by substrate addition measured after 60 mins by ADP-glo assay.
In test [3] the target is T1, Phosphatidylinositol 4,5-bisphosphate 3-kinase catalytic subunit delta isoform. The experiment in a line: Inhibition of PI3Kdelta in anti-IgM-stimulated human JeKo-1 cells assessed as inhibition of AKT phosphorylation at Ser473 residue incubated for 60 mins by TR-FRET assay.
Test [4] deals with Phosphatidylinositol 4,5-bisphosphate 3-kinase catalytic subunit gamma isoform (Mus musculus, UniProt Q9JHG7). The experiment in a line: Inhibition of PI3Kgamma in C5a-stimulated mouse RAW 264 cells assessed as inhibition of AKT phosphorylation at Ser473 residue Pretreated for 15 mins followed by C5a stimulation measured after 3 mins by HTRF assay. It is filed as cell-based.
For test [5], the target named is Phosphatidylinositol 4,5-bisphosphate 3-kinase catalytic subunit gamma isoform (Homo sapiens, UniProt P48736). Nature of the test: Inhibition of recombinant human PI3Kgamma assessed as reduction in ADP production using Dic8-PIP2 as substrate pre-treated for 15 mins followed by substrate addition measured after 60 mins by ADP-glo assay.
Chain of Phosphatidylinositol 4,5-bisphosphate 3-kinase catalytic subunit gamma isoform (Homo sapiens, UniProt P48736) (P48736 whole entry, canonical isoform): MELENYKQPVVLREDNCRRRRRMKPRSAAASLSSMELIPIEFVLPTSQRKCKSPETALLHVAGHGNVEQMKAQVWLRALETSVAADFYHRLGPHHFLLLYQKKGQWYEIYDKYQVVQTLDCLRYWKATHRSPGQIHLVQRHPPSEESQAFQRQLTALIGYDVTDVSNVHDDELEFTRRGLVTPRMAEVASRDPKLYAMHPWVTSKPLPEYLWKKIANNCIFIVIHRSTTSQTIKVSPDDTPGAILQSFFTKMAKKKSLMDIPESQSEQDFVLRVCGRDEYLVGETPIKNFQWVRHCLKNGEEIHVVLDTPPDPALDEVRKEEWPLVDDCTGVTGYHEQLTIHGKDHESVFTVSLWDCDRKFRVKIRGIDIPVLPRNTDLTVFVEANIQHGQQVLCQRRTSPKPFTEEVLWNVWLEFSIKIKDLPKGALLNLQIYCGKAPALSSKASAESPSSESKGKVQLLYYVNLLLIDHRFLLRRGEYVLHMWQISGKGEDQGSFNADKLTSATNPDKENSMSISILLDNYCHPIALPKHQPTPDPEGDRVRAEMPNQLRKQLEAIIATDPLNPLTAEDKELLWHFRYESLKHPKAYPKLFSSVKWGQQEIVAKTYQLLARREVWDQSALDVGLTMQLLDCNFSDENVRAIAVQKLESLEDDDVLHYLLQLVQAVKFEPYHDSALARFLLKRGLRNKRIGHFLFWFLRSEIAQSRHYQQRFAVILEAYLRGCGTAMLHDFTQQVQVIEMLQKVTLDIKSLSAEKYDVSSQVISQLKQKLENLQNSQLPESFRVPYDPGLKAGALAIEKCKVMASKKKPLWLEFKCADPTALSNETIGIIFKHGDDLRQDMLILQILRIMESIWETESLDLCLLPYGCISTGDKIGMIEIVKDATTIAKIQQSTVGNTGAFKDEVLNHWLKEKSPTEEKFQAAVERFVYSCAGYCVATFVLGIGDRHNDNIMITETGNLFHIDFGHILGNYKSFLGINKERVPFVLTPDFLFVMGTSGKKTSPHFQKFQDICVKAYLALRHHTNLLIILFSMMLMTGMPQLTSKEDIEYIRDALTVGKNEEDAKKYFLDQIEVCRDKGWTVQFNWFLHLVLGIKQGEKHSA

Chain of Phosphatidylinositol 4,5-bisphosphate 3-kinase catalytic subunit gamma isoform (Mus musculus, UniProt Q9JHG7) (Q9JHG7 whole entry, canonical isoform): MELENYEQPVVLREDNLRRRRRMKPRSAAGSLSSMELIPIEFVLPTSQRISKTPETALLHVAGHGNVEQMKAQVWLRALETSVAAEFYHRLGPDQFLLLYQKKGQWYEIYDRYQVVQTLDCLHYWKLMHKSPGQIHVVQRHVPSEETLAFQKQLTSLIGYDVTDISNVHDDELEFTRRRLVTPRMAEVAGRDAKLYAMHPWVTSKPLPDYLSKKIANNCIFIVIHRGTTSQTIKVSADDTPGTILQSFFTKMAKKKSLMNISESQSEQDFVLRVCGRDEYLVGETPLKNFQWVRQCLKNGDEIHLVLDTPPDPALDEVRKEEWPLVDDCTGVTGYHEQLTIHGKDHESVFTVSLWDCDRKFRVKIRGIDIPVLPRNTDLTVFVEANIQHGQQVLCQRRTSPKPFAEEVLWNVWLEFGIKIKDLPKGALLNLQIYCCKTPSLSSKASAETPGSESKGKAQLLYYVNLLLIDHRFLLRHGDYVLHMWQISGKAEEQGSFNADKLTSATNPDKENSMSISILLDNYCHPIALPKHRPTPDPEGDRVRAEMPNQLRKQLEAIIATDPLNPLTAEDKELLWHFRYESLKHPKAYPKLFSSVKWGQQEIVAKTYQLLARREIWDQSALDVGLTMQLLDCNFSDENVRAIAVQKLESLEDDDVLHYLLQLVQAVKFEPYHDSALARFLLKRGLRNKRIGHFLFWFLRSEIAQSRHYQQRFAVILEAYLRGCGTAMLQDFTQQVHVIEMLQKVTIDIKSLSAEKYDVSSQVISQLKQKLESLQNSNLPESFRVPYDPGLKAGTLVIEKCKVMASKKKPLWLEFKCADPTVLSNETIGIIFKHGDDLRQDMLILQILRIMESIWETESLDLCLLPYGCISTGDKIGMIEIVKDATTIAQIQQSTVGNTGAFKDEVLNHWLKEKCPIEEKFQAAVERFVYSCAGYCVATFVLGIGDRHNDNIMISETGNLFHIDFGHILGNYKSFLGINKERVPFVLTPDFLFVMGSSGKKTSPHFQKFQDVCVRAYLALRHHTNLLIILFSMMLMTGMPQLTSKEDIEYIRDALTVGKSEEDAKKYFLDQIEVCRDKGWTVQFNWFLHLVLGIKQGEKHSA
Chain of Phosphatidylinositol 4,5-bisphosphate 3-kinase catalytic subunit alpha isoform (P42336 whole entry, canonical isoform): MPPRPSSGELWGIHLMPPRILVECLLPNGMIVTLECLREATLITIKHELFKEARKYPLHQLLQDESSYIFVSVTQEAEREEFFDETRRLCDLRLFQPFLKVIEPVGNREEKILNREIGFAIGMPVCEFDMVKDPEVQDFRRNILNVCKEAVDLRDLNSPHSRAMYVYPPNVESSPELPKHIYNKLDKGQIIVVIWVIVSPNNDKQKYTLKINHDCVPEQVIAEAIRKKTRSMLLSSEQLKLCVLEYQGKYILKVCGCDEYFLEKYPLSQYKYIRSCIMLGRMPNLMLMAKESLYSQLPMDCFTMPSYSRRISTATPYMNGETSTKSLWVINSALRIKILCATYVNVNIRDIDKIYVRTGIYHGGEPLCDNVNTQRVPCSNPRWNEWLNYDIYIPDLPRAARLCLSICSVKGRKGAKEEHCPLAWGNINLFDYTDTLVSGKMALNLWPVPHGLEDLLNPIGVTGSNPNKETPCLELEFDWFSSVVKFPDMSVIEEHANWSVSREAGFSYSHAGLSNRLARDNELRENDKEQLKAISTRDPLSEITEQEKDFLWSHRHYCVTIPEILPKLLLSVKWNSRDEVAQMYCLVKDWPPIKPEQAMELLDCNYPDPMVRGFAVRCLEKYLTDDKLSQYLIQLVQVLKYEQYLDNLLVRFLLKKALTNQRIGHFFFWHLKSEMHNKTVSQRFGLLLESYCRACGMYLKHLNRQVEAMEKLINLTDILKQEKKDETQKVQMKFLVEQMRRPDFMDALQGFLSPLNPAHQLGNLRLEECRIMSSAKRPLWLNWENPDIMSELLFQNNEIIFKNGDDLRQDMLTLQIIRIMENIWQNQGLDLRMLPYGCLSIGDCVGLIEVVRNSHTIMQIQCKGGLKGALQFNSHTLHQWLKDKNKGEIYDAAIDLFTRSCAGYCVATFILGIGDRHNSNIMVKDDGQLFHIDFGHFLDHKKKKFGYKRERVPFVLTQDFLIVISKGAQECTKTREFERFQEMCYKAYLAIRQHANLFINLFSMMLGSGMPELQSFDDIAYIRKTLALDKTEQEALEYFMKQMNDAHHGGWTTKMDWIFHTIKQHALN

As to `CC(=O)N(C)c1cccc(Nc2nc(C)c(-c3cc4c(c(S(C)(=O)=O)c3)C(=O)N([C@@H](C)C3CC3)C4)s2)n1`, the 50% inhibitory concentration (IC50) in test [1] is 1.26 nM.
As for `CNS(=O)(=O)c1cc(-c2sc(Nc3cccc(N4CCN(C)CC4=O)n3)nc2C)cc2c1C(=O)N([C@@H](C)C1CC1)C2`, the IC50 was 39.8 nM in test [2], 1.58 nM in test [1], 6.31 nM in test [3] and 1.26 nM in test [4].
Regarding `CNS(=O)(=O)c1cc(-c2sc(Nc3cccc(N(C)C(C)=O)n3)nc2C)cc2c1C(=O)N([C@@H](C)C1CC1)C2`, the values for the IC50 in test [1], in test [3] and in test [4] were 0.794 nM, 6.31 nM and 1 nM, respectively.
Regarding `CC(=O)Nc1cccc(Nc2nc(C)c(-c3cc4c(c(S(C)(=O)=O)c3)C(=O)N([C@@H](C)C3CC3)C4)s2)n1`, the IC50 is 15.8 nM in test [1] and 1 nM in test [5].
The like results for `CCN(CC)C(=O)c1cccc(Nc2nc(C)c(-c3cc4c(c(S(=O)(=O)NC)c3)C(=O)N([C@@H](C)C3CC3)C4)s2)n1` were, in that order, 158 nM and 3.16 nM.
With `Cc1nc(Nc2cccc(N3CCNC3=O)n2)sc1-c1cc2c(c(S(=O)(=O)NC3COC3)c1)C(=O)N([C@@H](C)C1CC1)C2`, the IC50 in test [2] was 31.6 nM; in test [1], 0.631 nM; in test [3] it was 3.16 nM; in test [4], 2 nM.
In the case of `CNS(=O)(=O)c1cc(-c2sc(Nc3cccc(N4CCCCC4=O)n3)nc2C)cc2c1C(=O)N([C@@H](C)C1CC1)C2`, the IC50 in test [2] was 20 nM.
As to `CC(=O)Nc1nc(C)c(-c2cc3c(c(S(=O)(=O)Nc4cccc(CN(C)C)c4)c2)C(=O)N([C@@H](C)C2CC2)C3)s1`, the IC50 is 15.8 nM in test [1] and 2 nM in test [5].
For the compound `CC(=O)Nc1nc(C)c(-c2cc3c(c(S(=O)(=O)Nc4cccc(S(C)(=O)=O)c4)c2)C(=O)N([C@@H](C)C2CC2)C3)s1`, the IC50 in test [1] is 3.16 nM; in test [3], 31.6 nM; in test [4] it was 15.8 nM; in test [5], 1.26 nM.
With `Cc1nc(Nc2cccc(N3CCCC3=O)n2)sc1-c1cc2c(c(S(=O)(=O)NC3COC3)c1)C(=O)N([C@@H](C)C1CC1)C2`, the 50% inhibitory concentration (IC50) in test [2] is 126 nM; in test [1] it was 0.794 nM; in test [3] it was 5.01 nM; in test [4], 1 nM.
Consider `CNS(=O)(=O)c1cc(-c2sc(Nc3cccc(N4CC[C@@H](O)C4=O)n3)nc2C)cc2c1C(=O)N([C@@H](C)C1CC1)C2`, for which the values for the IC50 in test [2], in test [3] and in test [4] were 15.8 nM, 3.98 nM and 2.51 nM, respectively.
As for `CC(=O)Nc1nc(C)c(-c2cc3c(c(S(=O)(=O)Nc4ccccc4)c2)C(=O)N([C@@H](C)C2CC2)C3)s1`, the IC50 in test [1] was 50.1 nM; in test [5], 1 nM.
Turning to `CC(=O)Nc1nc(C)c(-c2cc3c(c(S(=O)(=O)Nc4cccc(C#N)c4)c2)C(=O)N([C@@H](C)C2CC2)C3)s1`, the IC50 is 10 nM in test [1] and 126 nM in test [3].
For `CC(=O)Nc1nc(C)c(-c2cc3c(c(S(=O)(=O)Nc4ccc(CN(C)C)cc4)c2)C(=O)N([C@@H](C)C2CC2)C3)s1`, the IC50 was 6.31 nM in test [1], 50.1 nM in test [3] and 2.51 nM in test [5].
`CNS(=O)(=O)c1cc(-c2sc(Nc3cccc(N4CCOCC4=O)n3)nc2C)cc2c1C(=O)N([C@@H](C)C1CC1)C2`: the IC50 in test [2] was 39.8 nM; in test [1], 0.631 nM; in test [3], 3.98 nM; in test [4], 0.794 nM.
For `CC(=O)Nc1nc(C)c(-c2cc3c(c(S(=O)(=O)Nc4ccc(C#N)cc4)c2)C(=O)N([C@@H](C)C2CC2)C3)s1`, the 50% inhibitory concentration (IC50) was 158 nM in test [1] and 1 nM in test [5].
On the same counts, the results for `CC(=O)Nc1nc(C)c(-c2cc3c(c(S(=O)(=O)N(C)c4ccc(CN(C)C)cc4)c2)C(=O)N([C@@H](C)C2CC2)C3)s1` are 25.1 nM and 2.51 nM.
The like results for `Cc1nc(Nc2cccc(-c3ocnc3CO)n2)sc1-c1cc2c(c(S(C)(=O)=O)c1)C(=O)N([C@@H](C)C1CC1)C2` were, in that order, 2 nM and 0.631 nM.
The like results for `CNS(=O)(=O)c1cc(-c2sc(Nc3cccc(C(=O)NCCCN(C)C)n3)nc2C)cc2c1C(=O)N([C@@H](C)C1CC1)C2` were, in that order, 3.98 nM and 3.16 nM.
Turning to `Cc1nc(Nc2cccc(N3CCOCC3=O)n2)sc1-c1cc2c(c(S(C)(=O)=O)c1)C(=O)N([C@@H](C)C1CC1)C2`, the half-inhibitory concentration (IC50) in test [2] is 50.1 nM.
In the case of `CNS(=O)(=O)c1cc(-c2sc(Nc3cccc(N4CCCOC4=O)n3)nc2C)cc2c1C(=O)N([C@@H](C)C1CC1)C2`, the IC50 in test [2] was 20 nM; in test [1] it was 0.631 nM; in test [3], 2.51 nM; in test [4], 1 nM.
As for `COCCNC(=O)c1cccc(Nc2nc(C)c(-c3cc4c(c(S(C)(=O)=O)c3)C(=O)N([C@@H](C)C3CC3)C4)s2)n1`, the IC50 is 5.01 nM in test [1] and 0.794 nM in test [5].
As to `Cc1nc2sc1-c1cc3c(c(c1)S(=O)(=O)Nc1ccc(cc1)CN(C)CCCNC(=O)c1cccc(n1)N2)C(=O)N([C@@H](C)C1CC1)C3`, the IC50 in test [1] was 0.794 nM; in test [3] it was 1.58 nM; in test [4], 3.98 nM; in test [5], 7.94 nM.
Turning to `Cc1nc(-c2cccc(Nc3nc(C)c(-c4cc5c(c(S(C)(=O)=O)c4)C(=O)N([C@@H](C)C4CC4)C5)s3)n2)n(C)n1`, the half-inhibitory concentration (IC50) is 1.58 nM in test [1] and 1 nM in test [5].
As for `Cc1nc2sc1-c1cc3c(c(c1)S(=O)(=O)Nc1ccc(cc1)CN(C)CCCCNC(=O)c1cccc(n1)N2)C(=O)N([C@@H](C)C1CC1)C3`, the IC50 in test [1] was 1 nM; in test [3], 1 nM; in test [4], 5.01 nM; in test [5], 10 nM.
Take `Cc1nc(Nc2cccc(N3CCCOC3=O)n2)sc1-c1cc2c(c(S(C)(=O)=O)c1)C(=O)N([C@@H](C)C1CC1)C2`: the IC50 is 20 nM in test [2], 1.26 nM in test [1], 3.98 nM in test [3] and 1.26 nM in test [4].
For `CNS(=O)(=O)c1cc(-c2sc(Nc3ccc(C(=O)NCCCN(C)C)cn3)nc2C)cc2c1C(=O)N([C@@H](C)C1CC1)C2`, the IC50 in test [1] was 6.31 nM; in test [5], 1.26 nM.
The like results for `CC(=O)Nc1nc(C)c(-c2cc3c(c(S(=O)(=O)Nc4ccc(S(C)(=O)=O)cc4)c2)C(=O)N([C@@H](C)C2CC2)C3)s1` were, in that order, 158 nM and 1 nM.
For `Cc1nc(Nc2cccc(N3CCCCC3=O)n2)sc1-c1cc2c(c(S(C)(=O)=O)c1)C(=O)N([C@@H](C)C1CC1)C2`, the IC50 was 31.6 nM in test [2], 1.26 nM in test [1], 12.6 nM in test [3] and 1.58 nM in test [4].
Consider `CNS(=O)(=O)c1cc(-c2sc(Nc3cccc(C)n3)nc2C)cc2c1C(=O)N([C@@H](C)C1CC1)C2`, for which the IC50 is 50.1 nM in test [1] and 1 nM in test [5].
For the compound `CNS(=O)(=O)c1cc(-c2sc(Nc3cccc(N4CCNCC4=O)n3)nc2C)cc2c1C(=O)N([C@@H](C)C1CC1)C2`, the IC50 in test [2] was 39.8 nM; in test [1] it was 0.794 nM; in test [3], 6.31 nM; in test [4], 3.98 nM.
With `Cc1nc(Nc2cccc(-c3nc(C)n(C)n3)n2)sc1-c1cc2c(c(S(C)(=O)=O)c1)C(=O)N([C@@H](C)C1CC1)C2`, the 50% inhibitory concentration (IC50) in test [1] is 25.1 nM; in test [5], 1 nM.
On the same counts, the results for `CC(=O)Nc1nc(C)c(-c2cc3c(c(S(=O)(=O)N(C)c4cccc(C#N)c4)c2)C(=O)N([C@@H](C)C2CC2)C3)s1` are 50.1 nM and 0.794 nM.
As to `CC(=O)Nc1nc(C)c(-c2cc3c(c(S(=O)(=O)Nc4cc(C#N)cc(S(C)(=O)=O)c4)c2)C(=O)N([C@@H](C)C2CC2)C3)s1`, the IC50 in test [1] is 25.1 nM.
With `CNS(=O)(=O)c1cc(-c2sc(Nc3cccc(N4C[C@H](O)CC4=O)n3)nc2C)cc2c1C(=O)N([C@@H](C)C1CC1)C2`, the results for the IC50 in test [1], in test [3] and in test [4] were 1.26 nM, 7.94 nM and 2 nM, respectively.
